Data reported in patent publication US20240400596A1, “PLATINUM-BASED PHOTOINITIATOR AND PHOTOCROSSLINKER, THEIR USE FOR ADDUCT FORMATION” (City University of Hong Kong, priority 2023, published 2024).

Assays:
[1] = Dark stability of cisPt(IV)-1, by HPLC; type: physicochemical; conditions: in the dark for about 30 min, free or mixed with radical spin traps
Experimental: 1 mM cisPt(IV)-1 (Pt(IV) complex of Formula (IIa)) and cisplatin in water was mixed with 1 or 10 mM DMPO or TEMPO. The mixed solution was irradiated with UV or kept in the dark for 10 min. The solution was analyzed by HPLC. The Pt(I) adduct products were characterized by ESI-HRMS, and the acetate radical adduct was separated and characterized by proton NMR. For the study of photolysis rate, the solution was irradiated with UV (365 nm, 9.8 mW/cm^2) for 0.5, 1, 2, 3, 4, 5 and 10 min, with or without the radical spin trap and analyzed by HPLC. For the study of dark stability, the solution was incubated at room temperature in the dark for 30 min before examined by HPLC.

[2] = Photolysis of Pt complexes in water under UV, by RP-HPLC; type: physicochemical; conditions: 1 mM in water, 365 nm, 9.8 mW/cm^2, 10 min
Experimental: The photolysis of Pt complexes in test tubes was examined by reversed-phase high performance liquid chromatography (RP-HPLC). 1 mM Pt complexes were dissolved in water. Then the mixed solution was irradiated with UV light (365 nm, 9.8 mW/cm^2) for 10 min at room temperature, and the solution was examined by HPLC. The percentage of remained Pt complexes was obtained from the ratio of the peak area of Pt complexes upon irradiation to that of the intact Pt complexes.

Row | Compound | stability in the dark [1] | percentage of intact Pt complex remaining upon irradiation [2] [%]
1 | CC(=O)[O][Pt]([NH2])([NH2])([Cl])([Cl])[O]C(C)=O [cisPt(IV)-1] | remained intact | 
2 | O=C1[O][Pt]2([NH][C@@H]3CCCC[C@H]3[NH]2)[O]C1=O [oxaliplatin] |  | 99
